According to patent EP4644383A1 (Jiangsu Yahong Meditech Co., Ltd., priority 2022, dated 2024):
Like-named read-outs stand apart in the source and are kept apart here.

Tests used:
Format in all cases: biochemical
[1] = target: T1, FGFR1 (Homo sapiens, UniProt P11362); assay: FGFR1 kinase activity inhibition assay (LanthaScreen TR-FRET)
T1 construct: cytoplasmic domain [398-822 (terminal) amino acids]; purchased Carna 08-133
Outline: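 Emission ratio 520 nm/495 nm by TR-FRET after stopping reaction with 10 mM EDTA and 60 min incubation at 22°C. Inhibition normalized between no-enzyme (min) and DMSO (max) controls, then fitted to a four-parameter curve (Top, Bottom, HillSlope).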

[2] = target: T2, FGFR4 (Homo sapiens, UniProt P22455); assay: FGFR4 kinase activity inhibition assay (LanthaScreen TR-FRET)
T2 construct: FGFR4's cytoplasmic domain [460-802 (terminal) amino acids]; purchased Carna 08-136
Outline: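 GST-tagged cytoplasmic domains (FGFR2 aa 399-821; FGFR4 aa 460-802) were preincubated 10 min at 23 °C with compound (top 1 µM, threefold dilutions). Then 28 nM fluorescein-poly GT and 28 µM ATP were added for 30 min at 23 °C in HEPES pH 7.5 buffer. Tb-PY20 TR-FRET 520/495 ratio gave % inhibition versus DMSO and no-enzyme controls.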

[3] = target: T3, FGFR2 (Homo sapiens, UniProt P21802); assay: FGFR2 kinase activity inhibition assay (LanthaScreen TR-FRET)
T3 construct: FGFR2's cytoplasmic domain [399-821 (terminal) amino acids]; purchased Carna 08-134
Outline: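 GST-fused FGFR2 cytoplasmic domain (aa 399-821) was run as in the FGFR1 protocol: preincubated 10 min at 23 °C with compound (3-fold series from 1 µM) in 50 mM HEPES pH 7.5, 10 mM MgCl2, 4 mM DTT, 1% DMSO. A 2× mix of 28 nM fluorescein-poly GT/28 µM ATP then reacted 30 min. Tb-PY20/EDTA quench preceded the TR-FRET 520/495 read.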

[4] = target: T4, FGFR3 (Homo sapiens, UniProt P22607); assay: FGFR3 kinase activity inhibition assay (LanthaScreen TR-FRET); details: for Selectivity (X) FGFR1/FGFR3: ratio of IC50 FGFR1/FGFR3, selectivity towards FGFR3; for Selectivity (X) FGFR2/FGFR3: ratio of IC50 FGFR2/FGFR3, selectivity towards FGFR3; for Selectivity (X) FGFR4/FGFR3: ratio of IC50 FGFR4/FGFR3, selectivity towards FGFR3
T4 construct: FGFR3's cytoplasmic domain [436-806 (terminal) amino acids]; purchased Carna 08-135
Outline: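 Read-out is TR-FRET, with the 520 nm/495 nm emission ratio normalised to DMSO (max) and enzyme-free (min) controls. Enzyme was the FGFR3 cytoplasmic domain, residues 436-806. EDTA (10 mM) stopped the reaction, followed by 60 min at 22 °C before reading.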

[5] = FGFR1 kinase, TR-FRET, read-out: IC50 (nM) FGFR1
[6] = FGFR4 kinase, TR-FRET, read-out: IC50 (nM) FGFR4
[7] = FGFR2 kinase, TR-FRET, read-out: IC50 (nM) FGFR2
[8] = FGFR3 kinase, TR-FRET, read-out: IC50 (nM) FGFR3

T2 sequence (P22455 460-802): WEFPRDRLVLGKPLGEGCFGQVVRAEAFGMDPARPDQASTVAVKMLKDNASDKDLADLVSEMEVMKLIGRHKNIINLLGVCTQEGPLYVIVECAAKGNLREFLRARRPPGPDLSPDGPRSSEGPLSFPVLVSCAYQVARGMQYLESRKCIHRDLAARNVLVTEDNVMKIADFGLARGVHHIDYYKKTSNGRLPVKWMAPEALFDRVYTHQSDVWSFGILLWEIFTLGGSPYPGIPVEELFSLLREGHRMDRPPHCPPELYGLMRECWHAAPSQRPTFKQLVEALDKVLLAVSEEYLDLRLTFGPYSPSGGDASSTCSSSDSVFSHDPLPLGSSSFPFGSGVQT
T1 sequence (P11362 398-822): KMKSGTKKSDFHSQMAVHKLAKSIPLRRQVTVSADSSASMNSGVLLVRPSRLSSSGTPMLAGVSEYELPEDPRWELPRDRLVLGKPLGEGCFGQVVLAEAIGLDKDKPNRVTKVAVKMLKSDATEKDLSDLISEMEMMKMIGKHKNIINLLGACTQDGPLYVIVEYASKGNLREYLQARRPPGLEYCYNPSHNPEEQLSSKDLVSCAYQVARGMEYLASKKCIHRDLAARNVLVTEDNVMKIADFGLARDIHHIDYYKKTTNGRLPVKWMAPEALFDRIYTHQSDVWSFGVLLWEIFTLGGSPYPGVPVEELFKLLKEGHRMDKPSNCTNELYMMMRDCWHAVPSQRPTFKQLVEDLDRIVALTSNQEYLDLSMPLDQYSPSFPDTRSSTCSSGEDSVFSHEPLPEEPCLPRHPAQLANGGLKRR
T4 sequence (P22607 436-806): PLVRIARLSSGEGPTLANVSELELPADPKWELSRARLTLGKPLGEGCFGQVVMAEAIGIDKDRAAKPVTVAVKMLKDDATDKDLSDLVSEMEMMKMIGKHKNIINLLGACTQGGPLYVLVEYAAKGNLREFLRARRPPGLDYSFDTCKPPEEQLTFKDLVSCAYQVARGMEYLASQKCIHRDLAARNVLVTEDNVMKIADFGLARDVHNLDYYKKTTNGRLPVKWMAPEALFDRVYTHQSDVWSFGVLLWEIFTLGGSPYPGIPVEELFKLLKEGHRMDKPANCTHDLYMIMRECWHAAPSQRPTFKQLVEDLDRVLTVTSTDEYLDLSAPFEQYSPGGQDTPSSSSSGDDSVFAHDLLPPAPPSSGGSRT
T3 sequence (P21802 399-821): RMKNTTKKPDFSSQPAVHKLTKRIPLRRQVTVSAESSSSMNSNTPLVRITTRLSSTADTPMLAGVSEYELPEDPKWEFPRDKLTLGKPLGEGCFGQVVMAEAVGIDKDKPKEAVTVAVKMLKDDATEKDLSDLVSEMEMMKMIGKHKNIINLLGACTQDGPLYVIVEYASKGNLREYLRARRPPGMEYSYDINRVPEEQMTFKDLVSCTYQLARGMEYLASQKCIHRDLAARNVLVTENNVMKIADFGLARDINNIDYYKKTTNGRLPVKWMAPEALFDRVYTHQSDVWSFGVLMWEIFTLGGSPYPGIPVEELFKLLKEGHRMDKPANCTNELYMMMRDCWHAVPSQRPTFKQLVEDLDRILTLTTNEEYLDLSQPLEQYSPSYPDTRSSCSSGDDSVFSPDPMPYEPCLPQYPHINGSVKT

| Compound | IC50 [1, 5] | IC50 [2, 6] | IC50 [3, 7] | IC50 [4, 8] | Selectivity (X) FGFR1/FGFR3 [4] | Selectivity (X) FGFR2/FGFR3 [4] | Selectivity (X) FGFR4/FGFR3 [4] | IC50 [1] | IC50 [2] | IC50 [3] | IC50 [4] |
| --- | --- | --- | --- | --- | --- | --- | --- | --- | --- | --- | --- |
| Cc1cc(C(C)Oc2ccc3[nH]nc(-c4cnn(C)c4)c3c2)c2cccnc2c1 (stereo not shown) [Example 133, 7-methyl-5-(1-((3-(1-methyl-1H-pyrazol-4-yl)-1H-indazol-5-yl)oxy)ethyl)qu inoline] | 10 to 100 nM | > 100 nM | 1 to 10 nM | < 1 nM | B (B represents 20 ≤ multiple X<50) | A (A represents 1 ≤ multiple X<20) | D (D represents 100 ≤ multiple X) | – | – | – | – |
| CC(Oc1ccc2[nH]nc(-c3cnn(C)c3)c2c1)c1cc(Cl)cc2ncccc12 (stereo not shown) [Example 134, 7-chloro-5-(1-((3-(1-methyl-1H-pyrazol-4-yl)-1H-indazol-5-yl)oxy)ethyl)qu inoline] | > 100 nM | > 100 nM | 10 to 100 nM | 1 to 10 nM | C (C represents 50 ≤ multiple X<100) | A (A represents 1 ≤ multiple X<20) | D (D represents 100 ≤ multiple X) | – | – | – | – |
| CC(Nc1ccc2[nH]nc(-c3cnn(C)c3)c2c1)c1cccc2nccnc12 (stereo not shown) [Example 135, 3-(1-methyl-1H-pyrazol-4-yl)-N-(1-(quinoxalin-5-yl)ethyl)-1H-indazole-5-amine] | 10 to 100 nM | 10 to 100 nM | 1 to 10 nM | 1 to 10 nM | B (B represents 20 ≤ multiple X<50) | A (A represents 1 ≤ multiple X<20) | B (B represents 20 ≤ multiple X<50) | – | – | – | – |
| CCc1cc(C(C)Oc2ccc3[nH]nc(-c4cnn(C)c4)c3c2)c2nccnc2c1 (stereo not shown) [Example 138, 7-ethyl-5-(1-((3-(1-methyl-1H-pyrazol-4-yl)-1H-indazol-5-yl)oxy)ethyl)quinoxaline] | 10 to 100 nM | 10 to 100 nM | 1 to 10 nM | < 1 nM | C (C represents 50 ≤ multiple X<100) | A (A represents 1 ≤ multiple X<20) | C (C represents 50 ≤ multiple X<100) | – | – | – | – |
| Cc1cc(C(C)Oc2ccc3[nH]nc(-c4cnn(C)c4)c3c2)c2nccnc2c1 (stereo not shown) [Example 140, 7-methyl-5-(1-((3-(1-methyl-1H-pyrazol-4-yl)-1H-indazol-5-yl)oxy)ethyl)qu inoxaline] | 1 to 10 nM | 10 to 100 nM | 1 to 10 nM | < 1 nM | A (A represents 1 ≤ multiple X<20) | A (A represents 1 ≤ multiple X<20) | B (B represents 20 ≤ multiple X<50) | – | – | – | – |
| CC(Oc1ccc2[nH]nc(-c3cnn(C)c3)c2c1)c1cc(F)cc2nccnc12 (stereo not shown) [Example 142, 7-fluoro-5-(1-((3-(1-methyl-1H-pyrazol-4-yl)-1H-indazol-5-yl)oxy)ethyl)qu inoxaline] | 1 to 10 nM | 10 to 100 nM | 1 to 10 nM | < 1 nM | A (A represents 1 ≤ multiple X<20) | A (A represents 1 ≤ multiple X<20) | B (B represents 20 ≤ multiple X<50) | – | – | – | – |
| Cc1ccn2nccc2c1C(C)Oc1ccc2[nH]nc(-c3cnn(C)c3)c2c1 (stereo not shown) [Example 155, 3-(1-methyl-1H-pyrazol-4-yl)-5-(1-(5-methylpyrazolo [1,5-a]pyridin-4-yl)ethoxy)-1H-indazole] | 10 to 100 nM | 10 to 100 nM | 1 to 10 nM | < 1 nM | B (B represents 20 ≤ multiple X<50) | A (A represents 1 ≤ multiple X<20) | B (B represents 20 ≤ multiple X<50) | – | – | – | – |
| CC(Oc1ccc2[nH]nc(-c3cnn(C)c3)c2c1)c1c(CO)ccc2ncccc12 (stereo not shown) [Example 156, (5-(1-((3-(1-methyl-1H-pyrazol-4-yl)-1H-indazol-5-yl)oxy)ethyl)quinolin-6-yl)m ethano] | – | – | – | – | B (B represents 20 ≤ multiple X<50) | A (A represents 1 ≤ multiple X<20) | A (A represents 1 ≤ multiple X<20) | 10 to 100 nM | 10 to 100 nM | 1 to 10 nM | 1 to 10 nM |
| CC(Oc1ccc2[nH]nc(-c3cnn(C)c3)c2c1)c1nccc2nccnc12 (stereo not shown) [Example 157, 5-(1-((3-(1-methyl-1H-pyrazol-4-yl)-1H-indazol-5-yl)oxy)ethyl)py ridino[3,4-b]pyrazine] | 10 to 100 nM | 10 to 100 nM | 1 to 10 nM | 1 to 10 nM | A (A represents 1 ≤ multiple X<20) | A (A represents 1 ≤ multiple X<20) | A (A represents 1 ≤ multiple X<20) | – | – | – | – |
| CC(Oc1ccc2[nH]nc(-c3cnn(C4CN(C)C4)c3)c2c1)c1cccc2nccnc12 (stereo not shown) [Example 158, 5-(1-((3-(1-(1-methylazetidin-3-yl)-1H-pyrazol-4-yl)-1H-indazol-5-yl)oxy)ethyl)q uinoxaline] | 10 to 100 nM | 10 to 100 nM | 1 to 10 nM | 1 to 10 nM | B (B represents 20 ≤ multiple X<50) | A (A represents 1 ≤ multiple X<20) | C (C represents 50 ≤ multiple X<100) | – | – | – | – |
| Cc1c(F)cc2ncccc2c1C(C)Oc1ccc2[nH]nc(-c3cnn(C)c3)c2c1 (stereo not shown) [Example 161, 7-fluoro-6-methyl-5-(1-((3-(1-methyl-1H-pyrazol-4-yl)-1H-indazol-5-yl)oxy)ethyl)quinoline] | 10 to 100 nM | 10 to 100 nM | 10 to 100 nM | 1 to 10 nM | B (B represents 20 ≤ multiple X<50) | A (A represents 1 ≤ multiple X<20) | B (B represents 20 ≤ multiple X<50) | – | – | – | – |
| CC(Oc1ccc2[nH]nc(-c3cnn(C4CC(N(C)C)C4)c3)c2c1)c1cccc2nccnc12 (stereo not shown) [Example 170, N,N-dimethyl-3-(4-(5-(1-(quinoxalin-5-yl)ethoxy)-1H-indazol-3-yl)-1H-pyrazol-1-yl)cyclobutan-1-amine] | 1 to 10 nM | 10 to 100 nM | 1 to 10 nM | < 1 nM | A (A represents 1 ≤ multiple X<20) | A (A represents 1 ≤ multiple X<20) | C (C represents 50 ≤ multiple X<100) | – | – | – | – |
| Cc1cc(C(C)Oc2ccc3[nH]nc(-c4cnn(C)c4)c3c2)c2ccnn2c1 (stereo not shown) [Example 171, 3-(1-methyl-1H-pyrazol-4-yl)-5-(1-(6-methylpyrazolo [1,5-a]pyridin-4-yl)ethoxy)-1H-indazole] | 10 to 100 nM | 10 to 100 nM | 1 to 10 nM | < 1 nM | B (B represents 20 ≤ multiple X<50) | A (A represents 1 ≤ multiple X<20) | B (B represents 20 ≤ multiple X<50) | – | – | – | – |
| CC(Oc1ccc2[nH]nc(-c3cnn(CCCS(C)(=N)=O)c3)c2c1)c1cc(Cl)cc2nccnc12 (stereo not shown) [Example 173, (3-(4-(5-(1-(7-chloroquinoxalin-5-yl)ethoxy)-1H-indazol-3-yl)-1H-pyrazol-1-yl)propyl)(imino)(methyl)-sulfanone] | 1 to 10 nM | 10 to 100 nM | 1 to 10 nM | < 1 nM | A (A represents 1 ≤ multiple X<20) | A (A represents 1 ≤ multiple X<20) | B (B represents 20 ≤ multiple X<50) | – | – | – | – |
| CC(Oc1ccc2[nH]nc(-c3cnn(C)c3)c2c1)c1cc(Cl)cn2nccc12 (stereo not shown) [Example 174, 5-(1-(6-chloropyrazolo[1,5-a]pyridin-4-yl)ethoxy)-3-(1-methyl-1H-pyrazol-4-yl)-1H-indazole] | 10 to 100 nM | 10 to 100 nM | 1 to 10 nM | < 1 nM | B (B represents 20 ≤ multiple X<50) | B (B represents 20 ≤ multiple X<50) | D (D represents 100 ≤ multiple X) | – | – | – | – |
| [2H]C([2H])([2H])c1ccc2ncccc2c1C(C)Oc1ccc2[nH]nc(-c3cnn(C)c3)c2c1 (stereo not shown) [Example 187, 6-(methyl-d3) - 5-(1-((3-(1-methyl-1H-pyrazol-4-yl)-1H-indazol-5-yl)oxy)ethyl)qu inoline] | 10 to 100 nM | 10 to 100 nM | 10 to 100 nM | 1 to 10 nM | B (B represents 20 ≤ multiple X<50) | A (A represents 1 ≤ multiple X<20) | B (B represents 20 ≤ multiple X<50) | – | – | – | – |
